We go through two compounds from paper PMC12409540 (ACS Omega, 2025).

The Kd is the equilibrium constant for the complex coming apart. A higher Kd goes with a looser complex.

The target in this experiment is Nurr1 protein (Homo sapiens, UniProt P43354). Nature of the experiment: SPR. The experiment is classed as binding.

The structures appear in SMILES notation.

Sequence of Nurr1 protein (P43354 whole entry): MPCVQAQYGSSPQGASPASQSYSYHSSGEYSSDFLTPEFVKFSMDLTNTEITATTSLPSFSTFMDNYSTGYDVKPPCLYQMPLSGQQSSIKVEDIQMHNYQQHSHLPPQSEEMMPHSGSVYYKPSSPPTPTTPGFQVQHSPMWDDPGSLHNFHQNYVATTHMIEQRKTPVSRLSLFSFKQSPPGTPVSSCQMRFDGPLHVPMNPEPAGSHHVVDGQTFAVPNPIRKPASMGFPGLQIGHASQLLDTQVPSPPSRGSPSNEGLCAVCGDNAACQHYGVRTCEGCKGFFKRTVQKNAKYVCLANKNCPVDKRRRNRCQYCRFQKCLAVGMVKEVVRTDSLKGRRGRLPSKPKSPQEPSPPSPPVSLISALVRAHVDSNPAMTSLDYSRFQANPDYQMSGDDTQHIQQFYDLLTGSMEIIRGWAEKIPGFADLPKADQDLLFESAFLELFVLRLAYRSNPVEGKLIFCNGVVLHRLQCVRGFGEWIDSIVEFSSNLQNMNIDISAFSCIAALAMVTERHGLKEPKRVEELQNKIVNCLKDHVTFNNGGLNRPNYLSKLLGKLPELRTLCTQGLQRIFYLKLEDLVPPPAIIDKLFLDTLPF

As to `CO[C@H]1C[C@H](O[C@H]2CC[C@]3(C=O)[C@H]4CC[C@]5(C)[C@@H](C6=CC(=O)OC6)CC[C@]5(O)[C@@H]4CC[C@]3(O)C2)O[C@H](C)[C@H]1O[C@@H]1O[C@H](CO[C@@H]2O[C@H](CO)[C@@H](O)[C@H](O)[C@H]2O)[C@@H](O)[C@H](O)[C@H]1O` [compound 7, K-strophanthoside], binding was characterised by a dissociation constant (Kd) of 23.1 µM.

`CCN(CC)Cc1cc(Nc2ccnc3cc(Cl)ccc23)ccc1O` [amodiaquine]: the Kd turned out to be 37 µM.
